Test results as given in patent publication US20200046658A1, “PHARMACEUTICAL COMPOSITION FOR INDUCING EXERCISE MIMETIC EFFECT” (CELLVERTICS CO., LTD., priority 2015, published 2020).
Counter-ions that a name gives are not always drawn. Marks after values point to notes of the source that are not given here.

Legend:
[1] = system: spontaneously hypertensive rat (SHR); assay: ATP level in tissues of SHR by ELISA; type: in vivo; details: versus control group SHRs, FIG. 5
Description: 0.02 g of liver tissue was homogenized in 500 μL of PBS. The homogenate was centrifuged at 1500×g (or 5000 rpm) for 15 minutes and the supernatant was subjected to measurement. After pouring 100 μL of a reference material or sample to an adequate well of an antibody-precoated microtiter plate, 10 μL of the residual solution was added to the sample. After adding 50 μL of a conjugate to each well and mixing, the plate was covered with a lid and incubated at 37° C. for 1 hour. After adding 50 μL of substrate A or B to each well, incubation was conducted at 37° C. for 15 minutes. After adding a stop solution to each well, optical density was measured at 450 nm using a microplate reader.
The level of ATP in the heart, skeletal muscle and liver was measured by ELISA for the 4-week-old basal rat (I), midodrine-administered rat (II), atenolol-administered rat (III) and 8-week-old unadministered control group rat (IV).

[2] = system: aorta and cardiac muscle tissue; assay: mRNA expression of AT1R, eNOS, SOD, gp91-phox, TNFα in aorta and cardiac muscle of SHR; type: in vivo, rat
Description: (§1) The animals of the group I were anesthetized at 4 weeks of age while the rats of other groups were anesthetized at 8 weeks of age after being treated for 4 weeks. […] The recovered organs were kept in a refrigerator at −80° C. or in 10% formalin for fixation.
Full-length RNA was extracted using the TriZol reagent according to the manufacturer's instructions. Complementary DNA was synthesized from the full-length RNA using the Power cDNA Synthesis kit and polymerase chain reaction was conducted for angiotensin II type I receptor (AT1R), endothelial nitric oxide synthase (eNOS), superoxide dismutase (SOD), gp91-phox (NADPH), tumor necrosis factor-alpha (TNF-α) and GAPDH using the PCR Premix kit.
The mRNA expression level of the genes related with vasoconstriction, nitric oxide production, oxidative stress and inflammation in the aorta and cardiac muscle tissue was investigated by […] for the 4-week-old basal rat (I), midodrine-administered rat (II), atenolol-administered rat (III) and 8-week-old unadministered control group rat (IV).

[3] = Body weight, cardiac weight and abdominal fat of SHR; type: in vivo, rat; details: 8 weeks old, drug in drinking water for 4 weeks (midodrine 0.2 mg/kg/day, atenolol 1 mg/kg/day), mean±SD
Description: as §1
Body weight and abdominal fat were measured and compared for the midodrine-administered rat (II), atenolol-administered rat (III) and 8-week-old unadministered hypertension control group rat (IV).

[4] = system: spontaneously hypertensive rat (SHR); assay: Echocardiographic examination of spontaneously hypertensive rats; type: in vivo
From the text: Spontaneously hypertensive rat (SHR) is an animal model in which hereditary hypertension is expressed. It is known that the hypertension which is the most similar to human primary hypertension is expressed. In SHR, blood pressure begins to increase around 4-6 weeks of age and hypertension is developed seriously at 8-12 weeks. SHR is widely used in studies as an animal mode of primary hypertension, especially hypertension with cardiac lesions, because it is frequently accompanied damage to the hypertensive target organs, such as cardiac hypertrophy, heart failure, renal disorder, etc.
3-week-old spontaneously hypertensive rats (SHRs) were kept under a standardized condition (21° C., 41-62% humidity) with periodic light/dark (10/14 hour) cycles and were freely allowed to access water and laboratory feed. All the animal experiments were approved by the Korea University Institutional Animal Care and Use Committee (KUIACUC-2012-100) and were in accordance with the Guideline for the Care and Use of Laboratory Animals.
After anesthetization by intramuscular injection of Zoletil (8 mg/kg) and xylazine (2 mg/kg), the rats were laid on their left sides and M-mode echo images were obtained. The examination was conducted using Vivid 7 (GE Medical Systems, Milwaukee, Wis., USA) equipped with a 12-MHz transducer. After acquiring optimized 2-dimensional short-axis images for the left ventricle at the papillary muscle level, M-mode tracing and echocardiographic images were recorded at a speed of 100 mm/s.

[5] = system: spontaneously hypertensive rat (SHR); assay: Serum inflammatory markers, reactive oxygen species and adiponectin in SHR; type: in vivo; details: 8 weeks old, drug for 4 weeks, mean±SD; for ROS: blood
Description: as §1
The concentration of total cholesterol, HDL cholesterol, LDL cholesterol and triglyceride was measured by enzymatic colorimetry (Roche Diagnostics GmbH; Mannheim, Germany). Also, serum assays for inflammatory markers were conducted using a […] cytokine Milliplex panel (Millipore Corporation, Billerica, Mass., USA) as recommended for cytokines (interleukin (IL)-1α, IL-1β, IL-6, IL-4, IL-10 and TNF-α). Acquisition was performed on a Luminex 100 platform and data analysis was carried out using the Multiplex analyzer. Reactive oxygen species and adiponectin were measured using the ELISA kit (MBS815494, Mybiosource). The measured blood adiponectin level was calibrated for the visceral fat weight (g).

[6] = system: mouse skeletal muscle cells (C2C12); assay: Western blot of p-AMPK, PPAR-δ and PGC-1α in differentiating C2C12 cells; type: cell-based; details: versus untreated control
Description: C2C12 cells (mouse skeletal cell line) were seeded onto a 6-well plate in a CO2 incubator at 37° C. and cultured in a DMEM medium containing 10% FBS and 1% antibiotics to about 80% confluency. After replacing the medium with one containing 1% FBS, differentiation was conducted for 3 days. Then, after replacing the medium with one containing 1% FBS and then treating with a drug, experiment was conducted 24 hours later.
The protein content of the extract was measured by the Bradford's method. The extracted proteins (20-30 μg) were loaded on a 10% SDS-PAGE gel. Western blot assay was conducted using primary antibodies for AMPKα, phosphorylated AMPKα, PPARδ and PGC-1α. Images were obtained manually using the Kodak GBX developer and a fixative reagent.
Specifically, after treating differentiating C2C12 cells with the compounds at different concentrations (10 μM, 30 μM, 50 μM), the expression of activated (phosphorylated) AMPK (p-AMPK), PPAR-δ and PGC-1α was investigated by western blot.

[7] = SHR, 8 weeks old, drug in drinking water for 4 weeks (midodrine 0.2 mg/kg/day, atenolol 1 mg/kg/day), mean±SD
[8] = C2C12, over 10 μM, 30 μM, 50 μM

CC(C)NCC(O)COc1ccc(CC(N)=O)cc1 (stereo not drawn) [Atenolol]
ATP level in heart tissue [1]: higher | TNFα expression in the aorta ([2]; among groups I-IV, FIG. 3A): moderate | expression of angiotensin II AT1R mRNA in the cardiac muscle ([2]; among groups I-IV, FIG. 3B): moderate | expression of angiotensin II AT1R mRNA in the aorta ([2]; versus control groups I and IV, FIG. 3A): lower | Body weight [3]: 296.46 ± 16.73^b g | Cardiac weight [3]: 1.47 ± 0.15^a g | Body weight ([3]; listed as atenolol): highest | left ventricular performance ([4]; 8-week-old SHR, versus unadministered control (group IV)): higher | Diastolic left ventricular diaphragm [4, 7]: 1.50 ± 0.13^a mm | Diastolic left ventricular inner size [4, 7]: 6.33 ± 0.35^a mm | Diastolic left ventricular wall [4, 7]: 1.67 ± 0.16 mm | Left ventricular ejection fraction [4, 7]: 82.00 ± 5.31^a % | Left ventricular fractional shortening [4, 7]: 45.70 ± 5.82^a % | Left ventricular mass according to ASE [4, 7]: 1.10 ± 0.07^a g | Systolic left ventricular inner size [4, 7]: 3.43 ± 0.28^a mm | Adiponectin ([5]; blood level calibrated for the visceral fat weight (g)): 6136.5 ± 574.7^bc ng/ml/g | ROS [5]: 223.1 ± 45.4^a ng/ml | ROS ([5]; listed as atenolol): lower | IL-1α ([5]; serum): 5.51 ± 2.64^c μg/ml | IL-1β ([5]; serum): 2.02 ± 1.53^a μg/ml | IL-4 ([5]; serum): 2.94 ± 0.90^b μg/ml | IL-6 ([5]; serum): 5.62 ± 1.42^a μg/ml | IL-10 ([5]; serum): 15.33 ± 2.79^b μg/ml | TNF-α ([5]; serum): 8.35 ± 1.36^b μg/ml | IL-1α ([5]; serum, listed as atenolol): significantly increased | IL-4 ([5]; serum, listed as atenolol): slightly higher | IL-10 ([5]; serum, listed as atenolol): slightly higher | TNF-α ([5]; serum, listed as atenolol): significantly increased

COc1ccc(OC)c(C(O)CNC(=O)C(N)Cc2ccccc2)c1 (stereo not drawn) [Compound 5, 2-amino-N-(2-(2,5-dimethoxyphenyl)-2-hydroxyethyl)-3-phenylpropanamide]
expression of PPAR-δ ([6]; C2C12, 30 μM): significantly increased | expression of p-AMPK ([6]; C2C12, 30 μM): significantly increased

COc1ccc(OC)c(C(O)CNC(=O)C(C)N)c1 (stereo not drawn) [Compound 7, 2-amino-N-(2-(2,5-dimethoxyphenyl)-2-hydroxyethyl)propanamide]
expression of p-AMPK ([6]; C2C12, 10 μM): significant increase | expression of PPAR-δ ([6]; C2C12, 30 μM): significant increase | expression of p-AMPK ([6]; C2C12, 50 μM): significant increase | expression of PPAR-δ [6, 8]: concentration-dependent increase | expression of p-AMPK [6, 8]: concentration-dependent increase

COc1cc(OC)cc(C(O)CNC(=O)CN)c1 (stereo not drawn) [Compound 8, 2-amino-N-(2-(3,5-dimethoxyphenyl)-2-hydroxyethyl)acetamide hydrochloride]
expression of PGC-1α ([6]; C2C12, 50 μM): significantly increased | expression of p-AMPK ([6]; C2C12, 50 μM): significantly increased | expression of PGC-1α [6, 8]: overall increase | expression of PPAR-δ [6, 8]: overall increase | expression of p-AMPK [6, 8]: overall increase

CCc1ccc(OC)c(C(O)CNC(=O)CN)c1 (stereo not drawn) [Compound 9, 2-amino-N-(2-(5-ethyl-2-methoxyphenyl)-2-hydroxyethyl)acetamide hydrochloride]
expression of PGC-1α ([6]; C2C12, 30 μM): significantly increased | expression of p-AMPK ([6]; C2C12, 30 μM): significantly increased | expression of PGC-1α ([6]; C2C12, 50 μM): significantly increased | expression of p-AMPK ([6]; C2C12, 50 μM): significantly increased | expression of PGC-1α [6, 8]: overall increase | expression of PPAR-δ [6, 8]: overall increase | expression of p-AMPK [6, 8]: overall increase

NCC(=O)NCC(O)c1ccccc1 (stereo not drawn) [Compound 10, 2-amino-N-(2-hydroxy-2-phenylethyl)acetamide hydrochloride]
expression of PPAR-δ ([6]; C2C12, 10 μM): significantly increased | expression of p-AMPK ([6]; C2C12, 30 μM): significantly increased | expression of PPAR-δ ([6]; C2C12, 50 μM): significantly increased | expression of p-AMPK ([6]; C2C12, 50 μM): significantly increased
